Literature values in US20160243040A1, “Pharmaceutical Composition with Antiinflammatory Agents and Production Process” (LABORATORIO RAAM DE SAHUAYO, S.A. DE C.V., priority 2013, published 2016).

Columns and labels:
[1] = class by biological half-life
[2] = relative potency, cortisol = 1
[3] = applies only to oral or intravenous use
[4] = relative potency, cortisol = 1; remark: listed apart in the source

dose excreted in urine (mainly as aceclofenac glucuronide and diclofenac, and its hydroxy metabolites) | tmax in presence of food (oral, presence of food) [h] | tmax without food (oral, without food) [h] | elimination half-life (single dose of 100 mg) [h] | SMILES | Duration of action [1] | Potency to retain Na+ [2] | Dose equivalents [3] [mg] | Anti-inflammatory potency [4]
– | – | – | – | C[C@H]1C[C@H]2[C@@H]3CCC4=CC(=O)C=C[C@]4(C)[C@@]3(F)[C@@H](O)C[C@]2(C)[C@@]1(O)C(=O)CO [Betamethasone] | P (P, prolonged (Biological half-life of 36 to 72 h)) | – | – | –
– | – | – | – | C[C@@H]1C[C@H]2[C@@H]3CCC4=CC(=O)C=C[C@]4(C)[C@@]3(F)[C@@H](O)C[C@]2(C)[C@@]1(O)C(=O)CO [Dexamethasone] | P (P, prolonged (Biological half-life of 36 to 72 h)) | – | – | –
– | – | – | – | C[C@H]1C[C@@H]2[C@H]([C@@H](O)C[C@@]3(C)[C@H]2CC[C@]3(O)C(=O)CO)[C@@]2(C)C=CC(=O)C=C12 [6α-methyl prednisolone] | I (I, intermediate (Biological half-life of 12-36 h)) | 0.5 | 4 | 5
– | – | – | – | C[C@]12CCC(=O)C=C1CC[C@H]1[C@@H]3CC[C@](O)(C(=O)CO)[C@@]3(C)C[C@H](O)[C@@]12F [Fludrocortisone] | I (I, intermediate (Biological half-life of 12-36 h)) | – | – | –
– | – | – | – | C[C@]12C=CC(=O)C=C1CC[C@@H]1[C@@H]2[C@@H](O)C[C@@]2(C)[C@H]1CC[C@]2(O)C(=O)CO [Prednisolone] | I (I, intermediate (Biological half-life of 12-36 h)) | 0.8 | 5 | 4
– | – | – | – | C[C@]12CCC(=O)C=C1CC[C@@H]1[C@@H]2[C@@H](O)C[C@@]2(C)[C@H]1CC[C@]2(O)C(=O)CO [Cortisol] | B (B, short (Biological half-life of 8-12 h)) | 1 | 20 | 1
– | – | – | – | C[C@]12C=CC(=O)C=C1CC[C@H]1[C@@H]3C[C@@H](O)[C@](O)(C(=O)CO)[C@@]3(C)C[C@H](O)[C@@]12F [Tiamcinolone] | I (I, intermediate (Biological half-life of 12-36 h)) | 0 | 4 | 5
Approximately 70% | 3.5 | 2.0 | 6.2 | O=C(O)COC(=O)Cc1ccccc1Nc1c(Cl)cccc1Cl [aceclofenac, Aceclofenac] | – | – | – | –
– | – | – | – | C[C@]12CCC(=O)C=C1CC[C@@H]1[C@@H]2C(=O)C[C@@]2(C)[C@H]1CC[C@]2(O)C(=O)CO [Cortisone] | B (B, short (Biological half-life of 8-12 h)) | 0.8 | 25 | 0.8
